In the experiment the test system is CD4+CD25- T cells. Description: Anti-CD3/CD28-induced T-cell proliferation (CPD). As to conditions: Homo sapiens, 72 h, 3 days. It is filed as cell-based. On the procedure:
FIGS. 7A-P are a combination of graphs and FACS plots showing that targeting the BOB1-OCT(s) interaction by compound 005 inhibits dose-dependently T-cell proliferation and selectively suppresses memory Th17 responses. Representative offset histogram overlays showing median fluorescence intensity of cell proliferation dye (CPD) in anti-CD3/CD28-activated CD4^+CD25^− T cells cultured without BOB1 inhibitor (DMSO-treated control) or in the presence of 5, 10 or 15 μM compound 005, as indicated (FIG. 7A). The percentage of proliferating cells is indicated for one representative donor. […] FIG. 7C-O show the expression of Th1-(IFNG (FIG. 7C), TNF (FIG. 7D), IL-2 (FIG. 7E) and TBX21 (FIG. 7F)), Th2-(IL-4 (FIG. 7G) and GATA3 (FIG. 7H)), Th17-(IL-17A (FIG. 7I), IL-17F (FIG. 7J), IL-21 (FIG. 7K), IL-22 (FIG. 7L) and RORC (FIG. 7M)), and Treg-(IL-10 (FIG. 7N) and FOXP3 (FIG. 7O)) associated cytokines and transcription factors during recall (memory) T cell responses in vitro. […] Each dot represents a biological replicate. Bars indicate the mean±SD. * P<0.05, ** P<0.01, **** P<0.0001.
Cells were resuspended in PBS and labelled with Cell Proliferation Dye eFluor 450 (CPD) (eBioscience) at a final concentration of 10 μM at 37° C. for 10 min, kept on ice for 5 min, and washed twice with 10 mL of ice-cold RPMI 1640 10% FCS medium.
To confirm and extend the observation that targeting the BOB1-OCT(s) interaction suppresses effector T cell proliferation efficiently, we cultured CD4^+CD25^− T cells in the presence of anti-CD3/CD28 microbeads and different concentrations of compound 005 for 3 days. […] OCT1 is constitutively expressed in T cells, whereas BOB1 is induced only after activation. […] Therefore, we next determined the consequences of inhibition of the OCT1-BOB1 complex on the expression of Th1-, Th2-, and Th17-associated cytokines during primary and secondary (memory) T-cell responses in vitro (FIGS. 7C-O). […]

As to `Cc1ccc(NC(=O)C2CN(c3nc(NCCCc4ccc(F)cc4)nc(NCCC(=O)O)n3)c3ccccc3O2)cc1Cl` (stereo not drawn) [compound 005, 3-((4-(2-((3-chloro-4-methylphenyl)carbamoyl)-2,3-dihydro-4H-benzo[b][1,4]oxazin-4-yl)-6-((3-(4-fluorophenyl)propyl)amino)-1,3,5-triazin-2-yl)amino)propanoic acid], the inhibition at 5 µM (5 μM) was found to be 18.8 ± 12.5%. In addition, the inhibition at 10 µM (10 μM) stood at 50.5 ± 10.2%. Besides, the inhibition at 15 µM (15 μM) worked out at 77.5 ± 9.2%.

Usually inhibition stands for the change of the read-out against control, counted positive when it falls.

These data come from patent US20250177412A1, “SMALL-MOLECULE INHIBITORS TARGETING THE BOB1/OCT1 INTERFACE” (NANTES UNIVERSITE, priority 2022, published 2025).
